The numbers were not newly measured in patent publication US7141235B2, “Stabilized gas emulsion containing phospholipid for ultrasound contrast enhancement” (Imcor Pharmaceutical Co., priority 1993, dated 2006), which cites them from elsewhere.

SMILES strings stand for the structures.

The conditions of this data set: in water.

Turning to `CCCCCCCCCCCCCCCCCC(=O)OC[C@H](COP(=O)([O-])OCC[N+](C)(C)C)OC(=O)CCCCCCCCCCCCCCCCC` [DSPC, distearoyl phosphatidylcholine], the “gel to liquid-crystal phase transition temperature” value was 55.5 °C.
Regarding `CCCCCCCCCCCCCC(=O)OC[C@H](COP(=O)([O-])OCC[N+](C)(C)C)OC(=O)CCCCCCCCCCCCC` [DMPC, dimyristoyl phosphatidylcholine], the “gel to liquid-crystal phase transition temperature” value is 23.5 °C.
